{"source": "paper PMC6562844", "about": "“A Basic Study of Photodynamic Therapy with Glucose-Conjugated Chlorin e6 Using Mammary Carcinoma Xenografts” (Cancers, 2019)", "key": {"[1]": {"test": "Pharmacokinetics after intravenous administration in healthy dogs", "format": "in vivo", "settings": "beagle, dog, plasma, i.v.; for Vd: read-out: Vdss", "method": "The animal protocol using healthy beagle dogs was approved by the Animal Research Committee of the Tottori University (project number: 17-T-3). For the pharmacokinetic crossover study, 6, 3, and 1 healthy beagle dogs were intravenously administered G-Ce6 at a dose of 2, 5, and 20 mg/kg, respectively. The ages of the healthy dogs (3 males and 3 females) ranged from 6–12 years old (mean and median, 8.6 and 7.5 years, respectively); the dogs weighed 8.7–11.2 kg (mean and median, 10.2 and 10.5 kg, respectively).\nThe volume of G-Ce6 required to achieve the desired doses was diluted with 0.5% saline to obtain a total injection volume of 10 mL. The full injection volume was intravenously administered over 10 min at a rate of 60 mL/h using an appropriate syringe pump.\nBlood samples were collected at 0, 10, and 30 min, and 1, 3, 6, and 24 h after the end of G-Ce6 injection. The samples were mixed with heparin in plastic tubes and centrifuged at 600 × g for 5 min at 4 °C; 0.2 mL of plasma from each centrifuged sample was transferred to Eppendorf tubes. The collected plasma samples were kept in the dark to avoid light exposure until assay initiation. For fluorescence measurement, plasma was read on a Fluorescence Spectrometer SH-9000Lab (excitation, 405 nm and emission, 665 nm; Hitachi High-Technologies Co., Tokyo, Japan). The concentration of G-Ce6 was determined by comparison with appropriate standards. The concentrations of G-Ce6 in the plasma were fitted to a two-compartment model and analyzed with a pharmacokinetic analysis program (http://www.pharm.kyoto-u.ac.jp/byoyaku/Kinetics/download.html). The pharmacokinetic parameters were calculated as follows: half-life (T1/2) = ln 2/β, where β is the slope of the elimination phase; volume of distribution at steady state (Vdss) = dose (A/α^2 + B/β^2)/((A/α) + (B/β))^2, where A and B are the intercepts of the distribution and elimination phases, respectively; α is the slope of the distribution phase; and clearance (CL) = dose/AUC, where AUC is the area under the curve, which was calculated using the trapezoidal method."}, "SNP tumors": {"tested_on": "SNP tumors", "test": "Tumor response to PDT in SNP tumor-bearing mice", "format": "in vivo, NOD/ShiJic-scidJcl mice", "settings": "10 mg/kg i.v.; for Tumor regrowth delay vs control group: 677-nm, 100 J/cm^2, p < 0.05", "method": "Six-week-old female NOD/ShiJic-scidJcl mice (CLEA Japan, Tokyo, Japan) were maintained in isolators under specific pathogen-free conditions. All SCID mice were housed and handled under clean conditions using a Jic rack (Jic Co., Kanagawa, Japan), sterilized water, cages, beddings, and food (CL-2; CLEA Japan, Tokyo, Japan). Food and water were given ad libitum. SNP cells were inoculated subcutaneously in the shaved lower dorsum of mice at a density of 1 × 10^6 cells in 0.1 mL phosphate buffered salts (Nacalai Tesque Inc., Kyoto, Japan) per mouse using a 26-gauge syringe. The treatments were initiated when the average tumor volume reached about 100 mm^3 in tumor model. The use of animals and the procedures employed in this study were approved by the Animal Research Committee of Tottori University (project number: 15-T-48).\nWe examined the following two experimental groups: (i) a 3-h-interval PDT group (G-Ce6 administered 3 h before laser irradiation) and (ii) a 5-min-interval PDT group (G-Ce6 administered 5 min before laser irradiation). Tumor-bearing mice were intravenously administered approximately 0.1 mL of G-Ce6 stock solution to achieve a dose of 10 mg/kg body weight; they were irradiated with 677-nm laser light emitted by a diode laser (Osada Electric Co., Ltd., Tokyo, Japan). Light was delivered to the mice through a quartz fiber fitted with a microlens and expanded onto the tumor at a 2–4 mm skin margin. The tumors were exposed at a fluence rate of 250 mW/cm^2, at a light dose of 100 J/cm^2.\nThe resulting treatment effect was assayed by changes in tumor volume. The tumor size was regularly measured after PDT using a caliper. Tumor volume was calculated using the following formula: tumor volume (V) = (a × b × c) × π/6, where a, b, and c are three orthogonal diameters of the tumor. The experiment was terminated on day 25. All mice were sacrificed via cervical dislocation, and the tumors were harvested."}, "SNP cells": {"tested_on": "SNP cells", "test": "Analysis of cell death (Hoechst 33342, Annexin V-FITC / EthD-III staining)", "format": "cell-based, canine", "settings": "for Annexin V-FITC / EthD-III staining 4 h after PDT: 8 μg/mL", "method": "We seeded 5 × 10^4 SNP cells in 35-mm Petri dishes containing 2 mL of cultivation medium. After 24 h of incubation, the dishes were divided into the following […] groups: 1) control group (no treatment); 2) 0 J/cm^2 PDT group (treated with 8 μg/mL G-Ce6 and irradiated with light dose of 0 J/cm^2); 3) 1 J/cm^2 PDT group (treated with 8 μg/mL G-Ce6 and irradiated with light dose of 1 J/cm^2); 4) 5 J/cm^2 PDT group (treated with 8 μg/mL G-Ce6 and irradiated with light dose of 5 J/cm^2); and 5) 15 J/cm^2 PDT group (treated with 8 μg/mL G-Ce6 and irradiated with light dose of 15 J/cm^2).\nThe cells were incubated with 8 μg/mL G-Ce6 for 24 h. After washing with fresh media, the cells were irradiated with 650-nm laser light (10 mW/cm^2; 1, 5, and 15 J/cm^2) emitted by a semiconductor laser using an optical fiber with a microlens delivery attachment. After 4 h of PDT, the cells were stained using the Promokine Apoptotic/Necrotic/Healthy cell detection kit (PromoKine, Heidelberg, Germany), according to the manufacturer’s instructions. […] Nuclear morphology was examined using an Olympus BX51 (Olympus Co., Tokyo, Japan). […] Nuclear morphology was examined using an Olympus Fluoview FV1000 (Olympus Co., Tokyo, Japan). The cells were analyzed using fluorescence microscopy using FITC and Texas Red filter setting."}}, "note": "Where two headings read alike, the source gives them in different places.", "data": [{"smiles": "CCC1=C(C)c2cc3[nH]c(cc4nc(c(CC(=O)OC)c5[nH]c(cc1n2)c(C)c5C(=O)OC)[C@@H](CCC(=O)OC)[C@@H]4C)c(C)c3C(C)OCCCS[C@@H]1O[C@H](CO)[C@@H](O)[C@H](O)[C@H]1O", "note": "(stereo partly drawn) [G-Ce6, Methyl (7S,8S)-18-ethyl-5-(2-methoxy-2-oxoethyl)-7-(3-methoxy-3-oxopropyl)-2,8,12,17-tetramethyl-13-(1-(3-(((2S,3R,4S,5S,6R)-3,4,5-trihydroxy-6-(hydroxymethyl)tetrahydro-2H-pyran-2-yl)thio)propoxy)ethyl)-7H,8H-porphyrin-3-carboxylate]", "values": [{"measurement": "AUC", "setting": "[1]; 5 mg/kg (n = 3)", "value": "59700 ± 7870", "unit": "ng·h/mL"}, {"measurement": "Cmax", "setting": "[1]; 5 mg/kg (n = 3)", "value": "47000 ± 12200", "unit": "ng/mL"}, {"measurement": "clearance", "setting": "[1]; 5 mg/kg (n = 3)", "value": 1.41, "unit": "mL/min/kg"}, {"measurement": "half-life", "setting": "[1]; 5 mg/kg (n = 3)", "value": "2.84 ± 0.6", "unit": "h"}, {"measurement": "Vd", "setting": "[1]; 5 mg/kg (n = 3)", "value": "0.258 ± 0.0656", "unit": "L/kg"}, {"measurement": "AUC", "setting": "[1]; 20 mg/kg (n = 1)", "value": 235000, "unit": "ng·h/mL"}, {"measurement": "Cmax", "setting": "[1]; 20 mg/kg (n = 1)", "value": 82000, "unit": "ng/mL"}, {"measurement": "clearance", "setting": "[1]; 20 mg/kg (n = 1)", "value": 1.42, "unit": "mL/min/kg"}, {"measurement": "half-life", "setting": "[1]; 20 mg/kg (n = 1)", "value": 2.51, "unit": "h"}, {"measurement": "Vd", "setting": "[1]; 20 mg/kg (n = 1)", "value": 0.284, "unit": "L/kg"}, {"measurement": "AUC", "setting": "[1]; both sexes, 2 mg/kg (n = 6)", "value": "12000 ± 3180", "unit": "ng·h/mL"}, {"measurement": "Cmax", "setting": "[1]; both sexes, 2 mg/kg (n = 6)", "value": "15200 ± 4440", "unit": "ng/mL"}, {"measurement": "clearance", "setting": "[1]; both sexes, 2 mg/kg (n = 6)", "value": 2.93, "unit": "mL/min/kg"}, {"measurement": "half-life", "setting": "[1]; both sexes, 2 mg/kg (n = 6)", "value": "3.02 ± 0.58", "unit": "h"}, {"measurement": "Vd", "setting": "[1]; both sexes, 2 mg/kg (n = 6)", "value": "0.529 ± 0.189", "unit": "L/kg"}, {"measurement": "Mean tumor weight on day 25", "setting": "SNP tumors; 3-h-interval PDT", "value": "210.3 ± 85.0", "unit": "mg"}, {"measurement": "Tumor regrowth delay vs control group", "setting": "SNP tumors; 3-h-interval PDT", "value": "significant tumor regrowth delay"}, {"measurement": "Mean tumor weight on day 25", "setting": "SNP tumors; 5-min-interval PDT", "value": "34.0 ± 12.7", "unit": "mg"}, {"measurement": "Tumor regrowth delay vs control group", "setting": "SNP tumors; 5-min-interval PDT", "value": "significant tumor regrowth delay"}, {"measurement": "Morphological changes 4 h after PDT", "setting": "SNP cells; 0 J/cm^2 PDT group, Hoechst 33342", "value": "Signs of cell death were not visible"}, {"measurement": "Annexin V-FITC / EthD-III staining 4 h after PDT", "setting": "SNP cells; 0 and 1 J/cm^2 PDT groups", "value": "a few cells were positively stained with EthD-III"}, {"measurement": "Annexin V-FITC / EthD-III staining 4 h after PDT", "setting": "SNP cells; 5 and 15 J/cm^2 PDT groups", "value": "many cells were positively stained with Annexin V or EthD-III"}, {"measurement": "Morphological changes 4 h after PDT", "setting": "SNP cells; 1 J/cm^2 PDT group", "value": "membrane blebbing"}, {"measurement": "Morphological changes 4 h after PDT", "setting": "SNP cells; 5 J/cm^2 PDT group", "value": "shrinkage"}, {"measurement": "Hoechst 33342 nuclear staining 4 h after PDT", "setting": "SNP cells; 5 and 15 J/cm^2 PDT groups", "value": "nuclear condensation"}, {"measurement": "Morphological changes 4 h after PDT", "setting": "SNP cells; 15 J/cm^2 PDT group", "value": "cell membranes were not observed and a decrease in the number of SNP cells was evident"}]}]}
